In ChEMBL document CHEMBL1201862, “PubChem BioAssay data set” (2004):
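Protocol summary: plate cells (96-well), add compound at 5 concentrations, incubate 48 h, interpolate endpoints linearly. GI50 is the concentration that inhibits growth by half.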 Activity calls are given as the source filed them. Rule as the data show it: active = GI50 up to about 1.1 µM and inactive = higher.

How the values were obtained:
Assay in all cases: growth of human tumour cells (NCI), 48 h
[1] = tested on: OVCAR-3
[2] = tested on: NCI-H226
[3] = tested on: CAKI-1
[4] = tested on: HT-29
[5] = tested on: HCC 2998
[6] = tested on: SK-MEL-5
[7] = tested on: SN12C
[8] = tested on: SNB-75
[9] = tested on: 786-0
[10] = tested on: A498
[11] = tested on: SR
[12] = tested on: SNB-78
[13] = tested on: RXF 393
[14] = tested on: SF-539
[15] = tested on: UO-31
[16] = tested on: HCT-15
[17] = tested on: CCRF-CEM
[18] = tested on: U-251
[19] = tested on: OVCAR-8

SMILES	GI50 [1]	GI50 [2]	GI50 [3]	GI50 [4]	GI50 [5]	GI50 [6]	GI50 [7]	GI50 [8]	GI50 [9]	GI50 [10]	GI50 [11]	GI50 [12]	GI50 [13]	GI50 [14]	GI50 [15]	GI50 [16] [µM]	GI50 [17]	GI50 [18]	GI50 [19]
CCCCCCc1cc(C(=O)Nc2cccc(C(F)(F)F)c2)nc(N)n1	> 100 µM (inactive)	> 100 µM (inactive)	> 100 µM (inactive)	> 100 µM (inactive)	> 100 µM (inactive)	> 100 µM (inactive)	> 100 µM (inactive)	> 100 µM (inactive)	> 100 µM (inactive)	> 100 µM (inactive)	> 100 µM (inactive)	> 100 µM (inactive)	> 100 µM (inactive)	> 100 µM (inactive)	> 100 µM (inactive)	> 100	> 100 µM (inactive)	> 100 µM (inactive)	
C/C(=N\O)c1sc(-n2nc(-c3ccccc3)cc2-c2ccccc2)nc1C	16.3 µM (inactive)	12.3 µM (inactive)	13.1 µM (inactive)	13 µM (inactive)	13.6 µM (inactive)	12 µM (inactive)	6.79 µM (inactive)	14.6 µM (inactive)	11.2 µM (inactive)	25.4 µM (inactive)	15.3 µM (inactive)	29.8 µM (inactive)	> 10 µM (inactive)	12.2 µM (inactive)	10.6 µM (inactive)	13.9	12.3 µM (inactive)	11.7 µM (inactive)	12 µM (inactive)
COc1c2c(cc3nc4ccccc4nc13)CCC(C(C)(C)O)C2 (stereo not drawn)	49.5 µM (inactive)	> 100 µM (inactive)	> 100 µM (inactive)	66.4 µM (inactive)	> 100 µM (inactive)	45.1 µM (inactive)	> 100 µM (inactive)	> 100 µM (inactive)	> 100 µM (inactive)	> 100 µM (inactive)	73.6 µM (inactive)	> 100 µM (inactive)	> 100 µM (inactive)	> 100 µM (inactive)	83.2 µM (inactive)	> 100	45.1 µM (inactive)	> 100 µM (inactive)	> 100 µM (inactive)
Cc1nn(C)cc1P(=S)(c1ccccc1)c1ccccc1	> 100 µM (inactive)		95.3 µM (inactive)	50.4 µM (inactive)	> 100 µM (inactive)	> 100 µM (inactive)	> 100 µM (inactive)	24.4 µM (inactive)	> 100 µM (inactive)	> 100 µM (inactive)	22.5 µM (inactive)	51.2 µM (inactive)	> 100 µM (inactive)	> 100 µM (inactive)	> 100 µM (inactive)	32.4	31.8 µM (inactive)	92.5 µM (inactive)	54.3 µM (inactive)
O=C1C(O)=C(CN(CCCl)CCCl)C(=O)c2ccccc21	45.1 µM (inactive)		39.7 µM (inactive)	42.8 µM (inactive)	97.5 µM (inactive)	52.6 µM (inactive)	57.1 µM (inactive)	73.6 µM (inactive)	28.2 µM (inactive)	> 100 µM (inactive)	35.6 µM (inactive)	70.8 µM (inactive)	28 µM (inactive)	34 µM (inactive)	37.4 µM (inactive)	31	42.3 µM (inactive)	64.3 µM (inactive)	76.9 µM (inactive)
COC(=O)C1=C(c2ccc3c(c2)OCO3)OC(c2ccc3c(c2)OCO3)C1 (stereo not drawn)	> 100 µM (inactive)	> 100 µM (inactive)	> 100 µM (inactive)	> 100 µM (inactive)	> 100 µM (inactive)	68.5 µM (inactive)	> 100 µM (inactive)	> 100 µM (inactive)	> 100 µM (inactive)	> 100 µM (inactive)	74.5 µM (inactive)	> 100 µM (inactive)	68.5 µM (inactive)	> 100 µM (inactive)	38.2 µM (inactive)	> 100	> 100 µM (inactive)	93.8 µM (inactive)	> 100 µM (inactive)
O=C1c2ccccc2NC1(c1ccccc1)c1c(-c2ccccc2)[nH]c2ccccc12 (stereo not drawn)	21.2 µM (inactive)		8.77 µM (inactive)	17.9 µM (inactive)	36.6 µM (inactive)		14 µM (inactive)	24.7 µM (inactive)	18.2 µM (inactive)	32.8 µM (inactive)	3.65 µM (inactive)	33.6 µM (inactive)	6.22 µM (inactive)	> 100 µM (inactive)	7.82 µM (inactive)	13.4	6.3 µM (inactive)	14.4 µM (inactive)	24.9 µM (inactive)
